Test results: patent publication US20220257569A1, “INDOLE-OXADIAZOLE COMPOUNDS AND THEIR THERAPEUTIC USE” (THE GOVERNING COUNCIL OF THE UNIVERSITY OF TORONTO, priority 2018, published 2022)
“Also recorded” adds a separate entry of the source.

Key:
mice fed a HFD diet = test: Non-alcoholic fatty liver disease (NAFLD) model, high fat diet mice; format: in vivo
Method: Hepatic triglycerides were measured using an ethanolic-KOH saponification method for lysing liver tissue and hydrolyzing triglyceride molecules to release free glycerol.
Serum ALT, a marker for liver damage, was assessed using an Infinity™ ALT Liquid Stable Reagent (ThermoFisher).
A) A representative vehicle-treated liver is characterized by extensive cytoplasmic clearing indicative of both microvesicular and macrovesicular steatosis. […] Formalin-fixed livers were sectioned at […] and stained using standard H&E staining.
A) A representative vehicle-treated liver is characterized by regions of large ORO-stained vacuoles. […] Frozen OCT-fixed livers were cryosectioned at […] and stained using a conventional ORO staining technique, which stains for neutral lipids.
Diet-induced obese (DIO) mouse models can recapitulate the endocrine and metabolic dysfunction observed in obese humans, and thus serve as ideal preclinical models fortesting novel therapeutic compounds. To induce fatty liver or NAFL, male C57BL/6 mice (n=10 vehicle; n=10 CB1 NAM) are fed a high fat diet (60% calories from fat, TD.06414) for a minimum of 8 weeks starting at 6 weeks of age. Control mice (n=10; vehicle TD.08806) are fed a diet consisting of 10% calories from fat. Mice are weighed weekly to monitor weight gain, and food consumption assessed as the average amount of food consumed per day to determine a potential central effect on appetite suppression. […] Mice are dosed daily with 5 or 10 mg/kg indole-oxadiazole or vehicle (5% ethanol: 5% Tween 80:90% saline) by i.p. administration. After 28 days of administration, glucose tolerance and insulin tolerance tests are conducted on separate days. Blood is collected by terminal cardiac puncture under isoflurane anesthetic followed by cervical dislocation to collect sufficient volumes for the subsequent measurement of multiple analytes (insulin, ALT, triglycerides, adiponectin, leptin). Liver is weighed and collected in formalin (H&E staining for histopathology) and OCT (Oil Red O staining for lipid) or snap frozen for mRNA, protein and the assessment of hepatic triglycerides. Gene expression analyses is conducted to assess the levels of CB1 receptor, FAAH, and various lipogenic and fatty acid transport genes.

GluN1KD mice = test: Open field test in GluN1KD mice and WT littermates; format: in vivo; conditions: 10 mg/kg; for Locomotor Activity (total distance traveled) / Stereotypy (total stereotypic movements) / Vertical Activity (total): mean±SEM
Source text: Functional NMDARs are composed of a common GluN1 subunit and one of four GluN2 subunits (GluN2A-GluN2D) combined in an undetermined ratio to make the heteromeric receptor complex. Recent studies using post mortem prefrontal cortex samples from patients with SCZ and depression, display a series of changes in NMDAR regulation. Endocannabinoids, via CB1Rs, control the presence of NR1 C1 subunits in the neural membrane which has implications for psychosis and SCZ. […] The GluN1KD (NMDAR hypofunction model) mouse line expresses 5-10% of the normal level of the subunit. GluN1KD mice display behavioural abnormalities that have been related to SCZ; these behaviours are normalized by the antipsychotics haloperidol and clozapine. At the dopamine level, GluN1KD mice have remodelled dopamine neurons, leading to a state of hyperdopaminergia, manifesting as an increase in tonic firing rates of dopaminergic neurons (Ferris et al., 2014).
Adult (>P70) GluN1-knockdown (GluN1KD—F1: C571Bl/6J x 129S1/SvlmJ) and DAT-knockout (DATKO—C57Bl/6J), balanced for sex, were treated with either vehicle (1:1:18-Tween80:95% ethanol:saline) or a novel CB1 negative allosteric modulator (CB1 NAM), ABM300, at 10 mg/kg, was tested in behavioural assays, and compared to littermate controls. Locomotor, stereotypic movements and vertical activity were tested, along with anxiety/mania and sensorimotor gating behaviours. All data were analyzed with two- or three-way ANOVA, as appropriate, and corrected for multiple comparisons.
Classically, locomotor output has been used as a gold standard for the measure of dopamine system dysfunction. The role of dopamine in movement control is well defined and, in its simplest forms, testing for hyperactivity is based on the premise that enhanced dopaminergic activity in rodents leads to enhanced motor activity (van den Buuse et al., 2010). Locomotor, stereotypic and vertical activity was recorded using digital activity monitors, quantifying horizontal and vertical activity, along with repetitive behaviour, via infrared beam breaks. GluN1 KD and DATKO display basal hyperactivity, with increases in stereotypic behaviours which can be ameliorated with antipsychotics (Peleg-Raibstein et al., 2008).

[1] = Rat liver microsomal stability assay; format: in vitro ADME; conditions: pooled rat liver microsomes 0.5 mg/mL, 3 μM compound, NADPH, 37° C., 45 min
Method: Metabolic stability of indole-oxadiazole derivatives of Formula I was measured by determination of the rate of compound disappearance when incubated in the presence of human or rat liver microsomes. Liver microsomes are prepared from the endoplasmic reticulum of hepatocytes and are the primary source of the most important enzymes (cytochrome P450) involved in drug metabolism. Study of drug stability in the presence of liver microsomes is accepted as a valuable model permitting rapid prediction of in vivo drug stability.
Human and rat liver microsomes were obtained from commercial sources. Test compounds (3 μM) were incubated with pooled liver microsomes (male and female). Samples were incubated for a 45 minute period and removed at 5 time points and test compounds were analysed by LC-MS/MS.
Microsomes (final protein concentration 0.5 mg/mL), 0.1 M phosphate buffer pH 7.4, and test compound (final concentration 3 μM; diluted from 10 mM stock solution to give a final DMSO concentration of 0.25%) were incubated at 37° C. prior to the addition of NADPH (final concentration 1 mM) to initiate the reaction. The final incubation volume was 25 μL. A control incubation was included for each compound tested, where 0.1 M phosphate buffer pH 7.4 was added instead of NADPH. The control compounds testosterone and 7-hydroxycoumarin were included in each experiment and all incubations were performed singularly for each compound.
Each compound was incubated for 0, 5, 15, 30, and 45 minutes. The control (minus NADPH) was incubated for 45 minutes only. The reactions were stopped by the addition of 50 μL methanol containing internal standard at the appropriate time points. The incubation plates were centrifuged at 2500 rpm for 20 minutes at 4° C. to precipitate the protein.
Following protein precipitation, the sample supernatants were combined in cassettes of up to 4 compounds and analysed using standard LC-MS/MS conditions.
From a plot of the natural logarithm of the peak area ratio (i.e., the ratio of compound peak area:internal standard peak area) against time, the gradient of the line was determined. Subsequently, half-life and intrinsic clearance were calculated using the equations below:
Eliminated rate constant (k)=(−gradient).

cannabinoid CB1 receptor = target: T1, cannabinoid CB1 receptor (Homo sapiens, UniProt P21554); test: PathHunter β-Arrestin assay (allosteric inhibition of agonist Emax); format: cell-based; conditions: FIG. 1; agonist CP55,940; calculated by GraphPad Prism; read-out: IC50 for reduction of Emax of CP55,940
T1 construct: host or cells: HEK293 CB1 β-arrestin cells
T1 sequence (P21554 whole entry): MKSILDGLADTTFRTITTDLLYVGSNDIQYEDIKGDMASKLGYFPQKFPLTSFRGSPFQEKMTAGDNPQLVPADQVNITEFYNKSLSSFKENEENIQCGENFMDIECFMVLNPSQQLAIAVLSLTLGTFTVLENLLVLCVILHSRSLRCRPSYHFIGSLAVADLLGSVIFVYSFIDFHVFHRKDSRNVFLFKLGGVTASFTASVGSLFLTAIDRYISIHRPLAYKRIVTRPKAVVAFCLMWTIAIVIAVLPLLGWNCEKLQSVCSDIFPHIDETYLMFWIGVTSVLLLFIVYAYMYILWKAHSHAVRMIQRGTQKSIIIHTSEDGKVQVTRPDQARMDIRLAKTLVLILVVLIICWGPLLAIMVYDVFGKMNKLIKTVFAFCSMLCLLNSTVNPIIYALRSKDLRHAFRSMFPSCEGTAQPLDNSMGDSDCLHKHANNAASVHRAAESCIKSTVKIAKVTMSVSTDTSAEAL

[2] = HFD 8 weeks, then 10 mg/kg daily for 4 weeks
[3] = HFD 8 weeks, then 10 mg/kg daily for 4 weeks, non-fasted mice
[4] = mouse model of fatty liver disease
[5] = WT (F1: C57Bl/6J x 129S1/SvlmJ) mice, open field

## CCc1c(-c2nnc(Nc3ccccc3)o2)[nH]c2ccc(Cl)cc12 [ABM300, 5-(5-Chloro-3-ethyl-1H-indol-2-yl)-N-phenyl-1,3,4-oxadiazol-2-amine]
other
  melting point: 252 to 254 °C
Mice fed a HFD diet; [2]
  Hepatic Triglycerides: 48.9 ± 14.6 mg/g tissue weight
  Serum ALT (ALT activity): 18.1 ± 4.0 U/L
Mice fed a HFD diet; [3]
  Oil Red O (ORO) stained liver sections (in words): smaller ORO-stained vacuoles
  effect on macrovesicular and microvesicular steatosis, H&E stained liver sections (in words): reduces the macrovesicular and microvesicular steatosis; also recorded: cytoplasmic clearing characteristic of glycogen accumulation
Mice fed a HFD diet; [4]
  effect on levels of triglycerides (in words): significantly reduces
  effect on serum ALT (in words): significantly reduces
GluN1KD mice; GluN1KD mice
  effect on hyperactivity (in words): reduces hyperactivity
GluN1KD mice; GluN1KD mice, open field
  effect on abnormal stereotypic behaviours (in words): reduces abnormal stereotypic behaviours
  effect on abnormal vertical exploration (risk-taking behaviour) (in words): reduces abnormal vertical exploration
  Locomotor Activity (total distance traveled): 5857 ± 1242 cm
  Stereotypy (total stereotypic movements): 891 ± 93
  Vertical Activity (total): 479 ± 142
GluN1KD mice; [5]
  Locomotor Activity (total distance traveled): 688 ± 193 cm
  Stereotypy (total stereotypic movements): 298.80 ± 45
  Vertical Activity (total): 43.91 ± 26
[1]
  Microsomal stability T1/2 Rat: 1.83 h
Cannabinoid CB1 receptor
  IC50: 1 nM
